In patent US8592572B2, “Liposome containing shRNA molecule targeting a thymidylate synthase and use thereof” (Delta-Fly Pharma, Inc., priority 2011, dated 2013):

Legend:
[1] = system: thymidylate synthase (TS); assay: siRNA and shRNA-induced TS expression inhibition (transfection with Lf RNAi MAX, Western blotting); assay type: cell-based, human; details: 1, 5 or 10 nM, 72 hours after transfection
Method: Lipofectamine™ RNAi MAX (hereafter referred to as “Lf RNAi MAX”), which is a cationic liposome, was used as a transfection reagent.
shRNA or siRNA prepared in Example 1 and Lf RNAi MAX were separately diluted with OptiMEM. The resulting solutions were mixed at a ratio of shRNA or siRNA to Lf RNAi MAX of 100 (pmol): 5 (μL). Here, equivalent amounts of the shRNA or siRNA solution and the Lf RNAi MAX solution were used. The obtained liquid mixture was left at room temperature for 10 to 20 minutes, resulting in complex (lipoplex) formation.
Each lipoplex was directly added to a 10-cm dish containing OptiMEM to adjust the total volume to 5 ml. Next, DLD-1 or DLD-1/FU cell suspension (10 ml) was seeded on the dish (500,000 cells/dish) so as to result in a final total volume of 15 ml, followed by transfection. Here, the final concentration of shRNA or siRNA was adjusted to 1, 5, or 10 nM. After the initiation of transfection, culture was carried out in a medium at 37° C. under 5% CO2 for 72 hours. […]
For detection of TS and β-actin, overnight reaction was carried out at 4° C. using the following primary antibodies each diluted with Tween buffer: a mouse monoclonal anti-human TS antibody (1:1000) (ANASPEC, Inc., CA, USA); and a mouse monoclonal anti-human β-actin antibody (1:500) (Bio Vision, Inc., CA, USA). […] The band of each protein of interest was detected on X-ray film.

DLD-1 cells = assay: Cancer cell proliferation inhibitory effects of siRNA and shRNA, MTT, DLD-1; assay type: cell-based, human; details: 5 nM siRNA/shRNA, in the presence of 5-FU 0.1 μg/mL
Method: (§1) In this Example, experimentation was performed on a 96-well plate scale. A lipoplex obtained as in the case of Example 2 was directly added to wells containing OptiMEM to adjust the total volume to 50 μl per well. Next, a DLD-1 or DLD-1/FU cell (human colonic intestinal adenocarcinoma cell) suspension (2,000 cells/100 μl) was added to the wells to which the lipoplex had been added (final total volume: 150 μl), followed by transfection. Here, the final concentration of shRNA or siRNA per well was 5 nM.
(§2) The medium was removed from each well 24 hours after the initiation of transfection. A fresh medium containing or not containing an existing chemotherapeutic agent, 5-FU, was added thereto (200 μl per well). Here, 5-FU was added to DLD-1 so as to result in a concentration of 0.1 μg/mL. 5-FU was added to DLD-1/FU so as to result in a concentration of 10 μg/mL. The medium was removed 0, 24, 48, 72, or 96 hours after the addition of the fresh medium. […] Also, the 0.5% MTT solution was added to cell-free wells to obtain a background absorbance.
(§3) After the completion of incubation, acidic isopropanol (150 μl) was added to each well. […] Absorbance was determined at a wavelength of 570 nm using a plate reader. Then, the cell proliferation rate was calculated. […]

DLD-1/FU cells = assay: Cancer cell proliferation inhibitory effects of siRNA and shRNA, MTT, DLD-1/FU; assay type: cell-based, human; details: 5 nM siRNA/shRNA, in the presence of 5-FU 10 μg/mL
Method: as §1, §2, §3

MSTO 211H cells = assay: Human plura malignant mesothelioma cell proliferation inhibitory effects of shRNA, MTT; assay type: cell-based; details: 5 or 10 nM shRNA, in the presence of pemetrexed sodium hydrate 10 ng/mL
Method: The experiment was carried out according to the method described in Example 3, except for using human plura malignant mesothelioma cell line (MSTO 211H) instead of human colorectal carcinoma cell line (DLD-1 or DLD-1/FU) and using pemetrexed sodium hydrate (Alimta (registered trademark) (Eli Lilly Japan K.K.)) instead of 5-FU as an existing chemotherapeutic agent. In the transfection, the final concentration of shRNA per well was either 5 or 10 nM. Pemetrexed sodium hydrate was added to a fresh medium at 10 ng/mL
Cell proliferation rate (%) was calculated in the same manner as described in the Example 3. FIG. 6 show the results.

MSTO 211H tumor = assay: Antitumor effects of PEG-modified lipoplex upon systemic administration to MSTO 211H cancer-bearing mouse; assay type: in vivo, BALB/c nu/nu male mice; details: MSTO 211H tumor-bearing mice; day 21 from beginning of administration; lipoplex 40 μg shRNA i.v. 6 times; pemetrexed 100 mg/kg i.p. 6 times
Method: BALB/c nu/nu male mice were subcutaneously inoculated with a MSTO 211H cell suspension (5×10^6 cells/100 μL). On day 14 from tumor cell inoculation, mice with tumor volumes of 50-100 mm^3 were subjected to an in vivo experiment.
The PEG-modified lipoplex prepared in Example 5 was administered via the mouse caudal vein to the MSTO 211H tumor bearing mice at a dose of 40 μg/200 μL (in terms of the shRNA amount) at 1-day intervals for 6 times in total starting on day 14 after tumor transplantation.
When the existing chemotherapeutic agent, pemetrexed sodium hydrate (Alimta (registered trademark) (Eli Lilly Japan K.K.)), was used in combination with the lipoplex, the agent was intraperitoneally administered 6 times in total (day 1, 2, 3, 8, 9 and 10) with 100 mg/kg starting on day 14 after tumor transplantation.
Carcinostatic activity was determined with tumor growth inhibition rate (TGI) (%) at day 21 from beginning of the administration. The TGI (%) was calculated in the same manner as described in the Example 6.

| Molecule | TS expression inhibition ([1]; DLD-1/FU cells) | TS expression inhibition ([1]; DLD-1 cells) | inhibition of cell proliferation (DLD-1 cells) | inhibition of cell proliferation (DLD-1/FU cells) | inhibition of cell proliferation (MSTO 211H cells) | tumor growth inhibitory effects (TGI) (MSTO 211H tumor) |
| --- | --- | --- | --- | --- | --- | --- |
| shTS: shRNA targeting TS, SEQ ID NO: 8, 5′-GUAACACCAUCGAUCAUGAUAGUGCUCCUGGUUGUCAUGAUCGAUGGUGUUACUU-3′, with two-uracil 3′ overhang (short hairpin RNA, chemistry not given here, further chemistry not given here) | significantly inhibit TS expression | significantly inhibit TS expression | significantly inhibited proliferation | significantly inhibited proliferation | significantly inhibited proliferation |  |
| Nc1nc2[nH]cc(CCc3ccc(C(=O)N[C@@H](CCC(=O)O)C(=O)O)cc3)c2c(=O)[nH]1 [pemetrexed sodium hydrate] |  |  |  |  |  | approximately 28% |
